# Measurements as given in US9528090B2, “Differentiation of human embryonic stem cells” (Janssen Biotech, Inc., priority 2010, dated 2016).
# Key:
# ES cells = details: 25 ng/ml of IGF added to 2% FBS, MEF-CM, activin A; cited from earlier work
# [1] = test system: human embryonic stem cells line H1; assay: Definitive endoderm differentiation of H1 cells, single cell seeding (GDF8/GSK3B inhibitor): real-time PCR gene expression; type: cell-based
# Experimental: (§1) Cells of the human embryonic stem cells line H1 (p40-p52) were seeded as single cells at a density of 100000 cells/cm^2 on MATRIGEL® (1:30 dilution) (BD Biosciences; Cat #356231)-coated dishes in MEF-CM (mouse embryonic fibroblast conditioned media) supplemented with 16 ng/ml of FGF2 (Catalog#100-18B, PeproTech, NJ) and 10 μM of Y27632 (Rock inhibitor, Catalogue#Y0503, Sigma, Mo.). 72 hrs post seeding, cultures were differentiated into definitive endoderm (DE) as follows: • a. MCDB-131 (Catalogue#10372-019, Invitrogen, CA) medium supplemented with 2% fatty acid-free BSA (Catalog#68700, Proliant, IA), 0.0025 g/ml sodium bicarbonate (Catalogue #S3187, Sigma, Mo.), 1× GlutaMax™ (Catalogue #35050-079, Invitrogen, Ca) and 100 ng/ml GDF8 (Catalogue#120-00, PeproTech, NJ) plus 2.5 μM of the GSK3B inhibitor 14-Prop-2-en-1-yl-3,5,7,14,17,23,27-heptaazatetracyclo [19.3.1.1˜2,6˜0.1˜8,12˜]heptacosa-1(25),2(27),3,5,8(26),9,11,21,23-nonaen-16-one for one day, then • b. MCDB-131 medium supplemented with 2% BSA, sodium bicarbonate, Glutamax, and 100 ng/ml GDF-8 for an additional three days.
# In some of the cultures, the cells were treated with the following concentrations of IGF (Catalogue#AF100, PeproTech, NJ): 0, 1, 10, 50, or 200 ng/ml. As a control, instead of BSA, 0.2% FBS (Catalogue#SH30070.03, Hyclone, UT) was used for day 1 of differentiation, and 2% FBS was used for days 2-4. Some of the FBS treated cultures were also treated with various concentrations of IGF.
# At day 4, samples were collected for FACS and gene expression analysis using real-time PCR.
# Cultures treated with medium supplemented with FBS were much more sensitive to the inhibitory effect of IGF. […] These observations was further supported by immuno fluorescence (IF) staining for the DE marker SOX17 (Catalogue #AF 1924, R & D systems, MN) (FIGS. 8-9).
# [2] = test system: human embryonic stem cells line H1; assay: Definitive endoderm differentiation of H1 cells in FBS medium (GDF8/GSK3B inhibitor) with IGF or insulin: FACS and real-time PCR; type: cell-based; details: in the presence of FBS, 10-100 ng/ml, day 4
# Experimental: as §1, with “a. with” for “a.”, “0.2% FBS (Catalogue#SH30070.03, Hyclone, UT),” for “2% fatty acid-free BSA (Catalog#68700, Proliant, IA),”, “14-Prop-2-en-1-yl-3,5,7,14,17,23,27-heptaazatetracyclo[19.3.1.1˜2,6˜0.1˜8,12˜]heptacosa-1(25),2(27),3,5,8(26),9,11,21,23-nonaen-16-one” for “14-Prop-2-en-1-yl-3,5,7,14,17,23,27-heptaazatetracyclo [19.3.1.1˜2,6˜0.1˜8,12˜]heptacosa-1(25),2(27),3,5,8(26),9,11,21,23-nonaen-16-one”, “FBS,” for “2% BSA,”, “GDF8” for “GDF-8”
# 0.5% FBS was used for day 2 and 2% FBS was used for days 3-4. Besides regular FBS, heat treated FBS (Catalogue#F4135, Sigma, Mo.) and charcoal stripped treated FBS (Catalogue#F6765, Sigma, Mo.) were also tested. Some of the FBS treated cultures were also treated with various concentrations of IGF (10-100 ng/ml) or insulin (10-100 ng/ml).
# At day 4, samples were collected for analysis by FACS and real-time PCR.
# [3] = test system: human embryonic stem cells line H1; assay: Definitive endoderm differentiation of H1 cells, single cell seeding (GDF8/GSK3B inhibitor, MCDB-131): FACS for CXCR4 and CD9; type: cell-based; details: for % CXCR4 + CD9− / % CXCR4 − CD9+ / % CXCR4 − CD9−: day 4
# Experimental: Cells of the human embryonic stem cells line H1 (p40-p52) were seeded as single cells at a density of 100000 cells/cm^2 on MATRIGEL® (1:30 dilution) (BD Biosciences; Cat #356231)-coated dishes in MEF-CM (mouse embryonic fibroblast conditioned media) supplemented with 16 ng/ml of FGF2 (Catalog#100-18B, PeproTech, NJ) and 10 μM of Y27632 (Rock inhibitor, Catalogue#Y0503, Sigma, Mo.). 72 hrs post seeding, cultures were differentiated into definitive endoderm (DE) as follows: • a. […] MCDB-131 medium supplemented with 2% BSA, sodium bicarbonate, Glutamax, and 100 ng/ml GDF-8 for an additional three days. In some of the cultures, the cells were treated with the following concentrations of IGF (Catalogue#AF100, PeproTech, NJ): 0, 1, 10, 50, or 200 ng/ml. As a control, instead of BSA, 0.2% FBS (Catalogue#SH30070.03, Hyclone, UT) was used for day 1 of differentiation, and 2% FBS was used for days 2-4. Some of the FBS treated cultures were also treated with various concentrations of IGF. At day 4, samples were collected for FACS and gene expression analysis using real-time PCR.
# [4] = IGF 50-200 ng/ml, BSA treated cultures
substance,measurement,setting,value
IGF,decrease of the expression of SOX17,ES cells,approximately 70%
same,"expression of markers associated with definitive endoderm (FOXA2, SOX17, CER1, CXCR4)","[1]; 1-200 ng/ml of IGF, BSA treated cultures, versus no IGF",did not significantly affect
same,expression of the embryonic marker NANOG,[1]; 50-200 ng/ml of IGF,did increase expression
same,"expression of SOX17, HNF3B and CXCR4","[1]; FBS supplemented cultures, increasing IGF",decreased with increasing concentration
same,expression of the pluripotency marker NANOG,[2],upregulated
same,markers associated with definitive endoderm such as SOX17 and CCXR4,[2],dose dependently down regulated
same,% CXCR4 + CD9−,[3]; BSA + 1 ng/ml IGF,92%
same,% CXCR4 − CD9+,[3]; BSA + 1 ng/ml IGF,0.8%
same,% CXCR4 − CD9−,[3]; BSA + 1 ng/ml IGF,3%
same,% CXCR4 + CD9−,[3]; BSA + 10 ng/ml IGF,90%
same,% CXCR4 − CD9+,[3]; BSA + 10 ng/ml IGF,1.3%
same,% CXCR4 − CD9−,[3]; BSA + 10 ng/ml IGF,5.3%
same,% CXCR4 + CD9−,[3]; BSA + 50 ng/ml IGF,87%
same,% CXCR4 − CD9+,[3]; BSA + 50 ng/ml IGF,6%
same,% CXCR4 − CD9−,[3]; BSA + 50 ng/ml IGF,3.5%
same,% CXCR4 + CD9−,[3]; BSA + 200 ng/ml IGF,79%
same,% CXCR4 − CD9+,[3]; BSA + 200 ng/ml IGF,10%
same,% CXCR4 − CD9−,[3]; BSA + 200 ng/ml IGF,8%
same,% CXCR4 + CD9−,[3]; FBS + 1 ng/ml IGF,89%
same,% CXCR4 − CD9+,[3]; FBS + 1 ng/ml IGF,3%
same,% CXCR4 − CD9−,[3]; FBS + 1 ng/ml IGF,3.6%
same,% CXCR4 + CD9−,[3]; FBS + 10 ng/ml IGF,87%
same,% CXCR4 − CD9+,[3]; FBS + 10 ng/ml IGF,6.4%
same,% CXCR4 − CD9−,[3]; FBS + 10 ng/ml IGF,3.3%
same,% CXCR4 + CD9−,[3]; FBS + 50 ng/ml IGF,78%
same,% CXCR4 − CD9+,[3]; FBS + 50 ng/ml IGF,6.8%
same,% CXCR4 − CD9−,[3]; FBS + 50 ng/ml IGF,13.2%
same,% CXCR4 + CD9−,[3]; FBS + 200 ng/ml IGF,70%
same,% CXCR4 − CD9+,[3]; FBS + 200 ng/ml IGF,13.4%
same,% CXCR4 − CD9−,[3]; FBS + 200 ng/ml IGF,12.9%
same,CXCR4+CD9− cells,[3]; [4],drop in expression
same,CXCR4−CD9+ fraction,[3]; [4],increase in expression
same,CXCr4+CD9− fraction,"[3]; increasing doses of IGF, FBS treated versus BSA treated cultures",more significant drop
